Test results taken from ChEMBL document CHEMBL1201862, “PubChem BioAssay data set” (2004).
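Five concentrations, 48 hours, 96-well plates. The concentration for 50% growth inhibition is given as GI50.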 Calls of active or inactive are those of the source. Cut-off read from the data, not from the text of the source: active = GI50 up to about 1.1 µM and inactive = higher.

Columns and labels:
Assay in all cases: NCI-60 cell line screen, 48 h
SK-MEL-2 = system: SK-MEL-2
HL-60 = system: HL-60
OVCAR-8 = system: OVCAR-8
NCI-H460 = system: NCI-H460
K562 = system: K562
NCI/ADR-RES = system: NCI/ADR-RES
BT-549 = system: BT-549
SF-295 = system: SF-295
SK-OV-3 = system: SK-OV-3
EKVX = system: EKVX
UACC-257 = system: UACC-257
ACHN = system: ACHN
PC-3 = system: PC-3
HOP-92 = system: HOP-92
IGROV-1 = system: IGROV-1
HOP-62 = system: HOP-62
MDA-MB-231 = system: MDA-MB-231
SF-268 = system: SF-268
SK-MEL-5 = system: SK-MEL-5
DMS-114 = system: DMS-114

Measured: GI50

CN1C(c2ccccc2)CC(=NOCc2ccccc2)CC1c1ccccc1 (configuration not stated)
inactive: SK-MEL-2 57.4 µM | HL-60 19 µM | OVCAR-8 21.5 µM | NCI-H460 19.1 µM | K562 13.8 µM | NCI/ADR-RES 19.3 µM | BT-549 16.9 µM | SF-295 44.2 µM | SK-OV-3 75 µM | EKVX 41.3 µM | UACC-257 64.7 µM | ACHN 46.1 µM | PC-3 24.7 µM | HOP-92 48.9 µM | IGROV-1 38.1 µM | HOP-62 49.5 µM | MDA-MB-231 43.7 µM | SF-268 24.3 µM | SK-MEL-5 33.7 µM | DMS-114 17.7 µM

O=C(Nc1cccc(Cc2cccc(NC(=O)c3ccccc3)c2)c1)c1ccccc1
inactive: SK-MEL-2 52.4 µM | HL-60 > 100 µM | OVCAR-8 19.5 µM | NCI-H460 36.1 µM | K562 > 100 µM | SF-295 16.5 µM | SK-OV-3 25.8 µM | EKVX 23.3 µM | UACC-257 29.8 µM | ACHN 28.2 µM | HOP-92 9.77 µM | IGROV-1 47.8 µM | HOP-62 22 µM | SF-268 34 µM | SK-MEL-5 25.1 µM | DMS-114 10.6 µM

CSc1nc(NC2OC(COC(C)=O)C(OC(C)=O)C(OC(C)=O)C2OC(C)=O)c(/N=C/C=N/c2c(NC3OC(COC(C)=O)C(OC(C)=O)C(OC(C)=O)C3OC(C)=O)nc(SC)[nH]c2=O)c(=O)[nH]1 (configuration not stated)
inactive: SK-MEL-2 > 100 µM | HL-60 > 100 µM | OVCAR-8 > 100 µM | NCI-H460 > 100 µM | K562 > 100 µM | SF-295 > 100 µM | SK-OV-3 > 100 µM | EKVX > 100 µM | UACC-257 > 100 µM | ACHN > 100 µM | HOP-92 > 100 µM | IGROV-1 > 100 µM | HOP-62 > 100 µM | SF-268 > 100 µM | SK-MEL-5 > 100 µM | DMS-114 > 100 µM

CC1(Br)C(=O)NC(=O)N(C2CC(N=[N+]=[N-])C(CO)O2)C1N=[N+]=[N-] (configuration not stated)
inactive: SK-MEL-2 > 100 µM | HL-60 > 100 µM | OVCAR-8 > 100 µM | NCI-H460 > 100 µM | K562 > 100 µM | SF-295 > 100 µM | SK-OV-3 > 100 µM | EKVX > 100 µM | UACC-257 > 100 µM | ACHN > 100 µM | HOP-92 > 100 µM | IGROV-1 > 100 µM | HOP-62 > 100 µM | SF-268 > 100 µM | SK-MEL-5 > 100 µM | DMS-114 > 100 µM

COc1c(C)c2c(c(O)c1C/C=C(\C)CCC(=O)O)C(=O)OC2 [MYCOPHENOLIC ACID]
active: OVCAR-8 1.08 µM | NCI-H460 0.488 µM | K562 0.396 µM | SF-295 0.632 µM | PC-3 1.1 µM | SK-MEL-5 1.02 µM | DMS-114 0.845 µM
inactive: SK-MEL-2 > 51.4 µM | HL-60 1.43 µM | NCI/ADR-RES 2.97 µM | SK-OV-3 1.43 µM | EKVX > 100 µM | UACC-257 4.51 µM | ACHN 1.75 µM | HOP-92 4.68 µM | IGROV-1 1.18 µM | HOP-62 6.44 µM | MDA-MB-231 2 µM | SF-268 1.37 µM

CC1=C(N2CC2)C(=O)c2nc3n(c2C1=O)CCC3O (configuration not stated)
inactive: HOP-92 2.23 µM
active: SK-MEL-2 0.7 µM | HL-60 0.566 µM | OVCAR-8 0.201 µM | NCI-H460 0.092 µM | K562 0.472 µM | BT-549 0.0171 µM | SF-295 0.166 µM | SK-OV-3 0.249 µM | EKVX 0.438 µM | UACC-257 0.226 µM | ACHN 0.152 µM | IGROV-1 0.461 µM | HOP-62 0.126 µM | SF-268 0.104 µM | SK-MEL-5 0.0216 µM | DMS-114 1.03 µM

COC1=CC(=O)C(O)=C(CC2(C)C(C)CCC3(C)C2CCCC3(C)C)C1=O (configuration not stated)
inactive: SK-MEL-2 3.06 µM | HL-60 2.58 µM | OVCAR-8 4.57 µM | NCI-H460 1.88 µM | K562 2.7 µM | SF-295 2.89 µM | SK-OV-3 18.2 µM | EKVX 5.83 µM | UACC-257 3.84 µM | ACHN 3.89 µM | HOP-92 2.38 µM | IGROV-1 5.2 µM | HOP-62 3.64 µM | SF-268 4.37 µM | SK-MEL-5 3.76 µM | DMS-114 2.57 µM

CC1(c2ccccc2Cl)C(C#N)C(=O)NC(=O)C1C#N (configuration not stated)
inactive: SK-MEL-2 49.9 µM | HL-60 21.6 µM | OVCAR-8 35.6 µM | NCI-H460 36.6 µM | K562 27.4 µM | SF-295 32.7 µM | SK-OV-3 34.6 µM | EKVX 24.5 µM | UACC-257 30.5 µM | ACHN 34.8 µM | HOP-92 23.5 µM | IGROV-1 64.1 µM | HOP-62 30.6 µM | SF-268 35.8 µM | SK-MEL-5 25.8 µM | DMS-114 30.9 µM

O=C(OCN1C(=O)C2C3C=CC(C2C1=O)C1C2C(=O)N(COC(=O)C4CCCN4)C(=O)C2C31)C1CCCN1 (configuration not stated)
inactive: SK-MEL-2 > 31.6 µM | HL-60 22.1 µM | OVCAR-8 25.5 µM | NCI-H460 22.6 µM | K562 > 67.9 µM | SF-295 > 82.6 µM | SK-OV-3 > 100 µM | EKVX > 100 µM | UACC-257 > 79.4 µM | ACHN > 50.5 µM | HOP-92 > 100 µM | IGROV-1 > 91 µM | HOP-62 > 100 µM | SF-268 > 51.3 µM | SK-MEL-5 62.5 µM | DMS-114 25.9 µM
